Experimental data published in patent US6602664B2 (priority 1998, dated 2003).
Structures can show the parent of a compound that is named as a salt. Where two headings read alike, the source gives them in different places.

Columns and labels:
[1] = system: recombinant HIV-1 virus isolates; type: cell-based
Excerpt: The aim of the study was to determine the potency of the inhibitory effect of a new generation of NRTIs on Multi Drug Resistant isolates and to compare it with their effect on wild-type HIV-1 isolates. All recombinant viruses were taken from the VIRCO repository of phenotypically and genotypically characterized virus isolates. Hirsch et al. Antiretroviral Drug Resistance Testing in Adults with HIV Infection. JAMA; 1998: 79(24) 1984-1991. See also Pauwels et al. Comprehensive HIV drug Resistance monitoring using rapid, high-throughput phenotypic and genotypic assays with correlative data analysis. Antiviral Therapy, 1998: 3: 35 Abstract 51.
Phenotypic drug susceptibility determination of recombinant virus isolates is described in Hertogs et al. A Rapid Method for Simultaneous Detection of Phentypic Resistance to Inhibitors of Protease and Reverse Transcriptase in Recombinant HIV-1 Isolates from Patients Treated with Antiretroviral Drugs. Antimicrob. Agents Chemother. 1998; 42(2): 269-276. The basic principle of the Antivirogram® technology is the construction of chimeric HIV-1 strains composed of the protease (PR) and reverse transcriptase (RT) gene sequences which are isolated and amplified from patient viral RNA. Amplicons are subsequently transfected into CD4+T cells together with a standard laboratory isogenic (HXB2) HIV-1 DNA construct from which the PR/RT gene sequences were deleted. After homologous recombination, new viruses whose diversity reflects the original population amplified from the plasma are produced at high level from these cells.
The virus infectivity (CCID50) is determined by an end-point dilution method. The titer is calculated from the degree of infection, measured by the intensity of reporter-gene signal as generated by serial dilutions of the virus shock. The chimeric (clinical isolates and wild-type reference) viruses are then analyzed for their phenotypic sensitivity (i.e. susceptibility) to the different PR and RT-inhibitors in an automated reporter gene-based assay using serial dilutions of the compound. The standardisation of the Antivirogram®n assay allows for simultaneous testing of all clinically approved drugs in one 384-well microtiter plate. The experimental drugs are included in separate plates. Each plate contains multiple replicates of mock-infected wells, virus-infection control wells and blank (medium-only) well. All plates are tested in duplicate. 50% Inhibitory concentrations are calculated based on reporter signals obtained through optical reading of 384-well plates containing serial dilutions of compounds, a normalised quantity of virus and by taking into account all relevant control wells. Approval (or not) is done according to critical ranges and settings as described in the corresponding VIRCO Standard Operating Procedure.
A more detailed description of the protocol is as follows. Samples were stored frozen. […] To confirm the genotypic pattern, genotyping (ABI-sequencing) was performed after recombination and culture of the laboratory strains by analysis of cell viability, calculation of results (dose-response curves, IC50 values), and reporting of data.

[2] = system: HIV-1 replication in human PBM cells; assay: microbe, parasite or virus in culture; type: cell-based
Method: Cells and viruses. […] Antimicrobial Agents Chemother 1992;36(11): 2423-2431.
Cell pellets were washed, centrifuged, lysed and the proviral DNA extracted as previously described. Cytotoxicity of the compounds was determined using the Promega Cell Titer 96 dye uptake assay (Madison, Wis.) in 1-2 day PHA-stimulated PBM cells after 5 days in culture. The median effective concentration (EC50) and inhibitory concentration (IC50) were derived from the computer-generated median effect plot of the dose-effect data, as described previously.

Which “fold Resistance” value ([1]; RT genotype D67D/N, K70R, M184V, G333E) does the source give for Nc1ccn([C@@H]2CS[C@H](CO)O2)c(=O)n1 [3TC, (−)-β-2′,3′-dideoxy-3′-thiacytidine] here?
The value was >99.

What about the “fold Resistance” value ([1]; RT genotype D67N, K70R, K219Q/K, 181C/Y) of the same molecule?
The value was 3.7.

And the “fold Resistance” value ([1]; RT genotype K70R, K219Q)?
Its value is 1.

And the “fold Resistance” value ([1]; RT genotype M41L, D67N, K70R, K103N, L210W, T215Y, K219N/K)?
Its value is 8.25.

And the “fold Resistance” value ([1]; RT genotype M41L, L210L, T215Y, Y181C/Y, M184M/V)?
The value was 3.

And the “fold Resistance” value ([1]; RT genotype M41L, L210W, T215Y)?
Its value is 0.4.

What about the “fold Resistance” value ([1]; RT genotype M41L, T69S-V-T, L210W, T215Y, G333E) of the same molecule?
Its value is >65.

And the “fold Resistance” value ([1]; RT genotype M41L, T215Y, M184V)?
Its value is >99.

What about the “fold Resistance” value ([1]; RT genotype T69G, Q151M, M184V/M) of the same molecule?
The value was >65.

What about the “fold Resistance” value ([1]; RT genotype T69I, K70R, Q151M, M184V) of the same molecule?
The value was >65.

And the “fold Resistance” value ([1]; RT genotype T69S-E, M184I, T215Y)?
The value was >65.

What about the “fold Resistance” value ([1]; RT genotype T215Y) of the same molecule?
Its value is 1.5.

What about the “fold Resistance” value ([1]; recombinant isolate, RT genotype K70R) of the same molecule?
The value was 1.

What about the EC50 ([2]; Human immunodeficiency virus 1, PBMC, Table 2, human PBMC) of the same molecule?
The EC50 was 6.7 nM.

What about the EC90 ([2]; Human immunodeficiency virus 1, PBMC, Table 2, human PBMC, read-out: EC90) of the same molecule?
The EC90 was 51 nM.

What about the “m ± SE (slope of median effect plot)” value ([2]; Table 2, human PBMC) of the same molecule?
Its value is 1.08 ± 0.15.

For Nc1nc(N)c2ncn([C@H]3CO[C@@H](CO)O3)c2n1 [DAPD, β-D-dioxolanyl-2,6-diaminopurine], which EC50 ([2]; Table 3, human PBMC) is on record?
The EC50 was 1810 nM.

What about the “m ± SE (slope of median effect plot)” value ([2]; Table 3, human PBMC) of the same molecule?
Its value is 1.40 ± 0.14.

What about the EC90 ([2]; Table 3, human PBMC, read-out: EC90) of the same molecule?
The EC90 was 8680 nM.

What does the source list for CC(C)(C)NC(=O)[C@@H]1CN(Cc2cccnc2)CCN1C[C@@H](O)C[C@@H](Cc1ccccc1)C(=O)N[C@H]1c2ccccc2C[C@H]1O [Indinavir, {1(1,S,2R),5(S)]-2,3,5-trideoxy-N-(2,3-dihydro-2-hydroxy-1H-inden-1-yl)-5-[2-[[(1,1-dimethylethyl)amino]carbonyl]4-(3-pyridinylmethyl)-1-piperazinyl]-2-(phenylmethyl)-D-erythro-pentoamide sulfate]?
m ± SE (slope of median effect plot) [2]: 0.86 ± 0.17; EC90 ([2]; Human immunodeficiency virus 1, PBMC): 19 nM; inhibition at 1 µM ([2]; Human immunodeficiency virus 1, PBMC, 144 h, concentration 0.001 mM, day 6, read-out: Inhibition %): 29.9%; inhibition at 10 µM ([2]; Human immunodeficiency virus 1, PBMC, 144 h, concentration 0.01 mM, day 6, read-out: Inhibition %): 88.7%; EC50 ([2]; Human immunodeficiency virus 1, PBMC, Table 3A, human PBMC): 1.5 nM
